Source: ChEMBL document CHEMBL4673302, “Efficient synthesis and antitumor evaluation of 4-aminomethyl-N-arylpyrazoles: Discovery of potent and selective agents for ovarian cancer” (Bioorg Med Chem, 2021)

How the values were obtained:
[1] = (§1) Cytotoxicity against human HaCaT cells assessed as cell growth inhibition measured after 48 hrs by sulforhodamine B assay; assay type: cell-based; conditions: HaCaT cells
U-251 = assay: Anticancer activity against human U-251 cells assessed as cell growth inhibition measured after 48 hrs by sulforhodamine B assay; assay type: functional
K562 = assay: Anticancer activity against human K562 cells assessed as cell growth inhibition measured after 48 hrs by sulforhodamine B assay; assay type: functional
OVCAR-3 = assay: Anticancer activity against human OVCAR-3 cells assessed as cell growth inhibition measured after 48 hrs by sulforhodamine B assay; assay type: functional
MCF7 = assay: Anticancer activity against human MCF7 cells assessed as cell growth inhibition measured after 48 hrs by sulforhodamine B assay; assay type: functional
HT-29 = assay: Anticancer activity against human HT-29 cells assessed as cell growth inhibition measured after 48 hrs by sulforhodamine B assay; assay type: functional
PC-3 = assay: Anticancer activity against human PC-3 cells assessed as cell growth inhibition measured after 48 hrs by sulforhodamine B assay; assay type: functional
NCI-H460 = assay: Anticancer activity against human NCI-H460 cells assessed as cell growth inhibition measured after 48 hrs by sulforhodamine B assay; assay type: functional
786-0 = assay: Anticancer activity against human 786-0 cells assessed as cell growth inhibition measured after 48 hrs by sulforhodamine B assay; assay type: functional
HaCaT = assay: as §1; assay type: cell-based; conditions: hacat, 48 h

Compound	GI50 at 48 h [1]	GI50 (U-251; Homo sapiens, U-251, 48 h)	GI50 (K562; Homo sapiens, K562, 48 h)	GI50 (OVCAR-3; Homo sapiens, OVCAR-3, 48 h)	GI50 (MCF7; Homo sapiens, MCF7, 48 h)	GI50 (HT-29; Homo sapiens, HT-29, 48 h)	GI50 (PC-3; Homo sapiens, PC-3, 48 h)	GI50 (NCI-H460; Homo sapiens, NCI-H460, 48 h)	GI50 (786-0; Homo sapiens, 786-0, 48 h)	GI50 (K562; 48 h)	GI50 (U-251; 48 h)	GI50 (OVCAR-3; 48 h)	GI50 (HT-29; 48 h)	GI50 (PC-3; 48 h)	GI50 (786-0; 48 h)	GI50 (HaCaT)	GI50 (MCF7; 48 h)	GI50 (NCI-H460; 48 h)
CC(C)(C)NCc1c(C(=O)O)nn(-c2ccc(Cl)cc2)c1-c1ccc([N+](=O)[O-])cc1	> 584 µM	> 584 µM	158 µM	162 µM	550 µM	> 584 µM	> 584 µM	141 µM	104 µM	–	–	–	–	–	–	–	–	–
CC(C)(C)NCc1c(C(=O)O)nn(-c2ccccc2)c1-c1ccc(Cl)cc1	> 652 µM	> 652 µM	364 µM	> 652 µM	> 652 µM	353 µM	145 µM	70.5 µM	> 652 µM	–	–	–	–	–	–	–	–	–
Cc1ccc(-c2c(CNC(C)(C)C)c(C(=O)O)nn2-c2ccc(Cl)cc2)cc1	> 630 µM	> 630 µM	> 630 µM	> 630 µM	> 630 µM	> 630 µM	> 630 µM	> 630 µM	> 630 µM	–	–	–	–	–	–	–	–	–
CC(C)(C)NCc1c(C(=O)O)nn(-c2ccc(Cl)cc2)c1-c1ccccc1	175 µM	> 652 µM	> 652 µM	652 µM	496 µM	> 652 µM	> 652 µM	> 652 µM	> 652 µM	–	–	–	–	–	–	–	–	–
Cc1ccc(-c2c(CNC(C)(C)C)c(C(=O)O)nn2-c2ccccc2)cc1	> 688 µM	> 688 µM	> 688 µM	283 µM	> 688 µM	> 688 µM	> 688 µM	> 688 µM	> 688 µM	–	–	–	–	–	–	–	–	–
COc1cccc2c1C(=O)c1c(O)c3c(c(O)c1C2=O)C[C@@](O)(C(=O)CO)C[C@@H]3O[C@H]1C[C@H](N)[C@H](O)[C@H](C)O1 [DOXORUBICIN]	< 0.046 µM	< 0.046 µM	0.06 µM	0.09 µM	< 0.046 µM	0.26 µM	0.42 µM	< 0.046 µM	–	–	–	–	–	–	–	–	–	–
COc1ccc(-c2c(CNC(C)(C)C)c(C(=O)O)nn2-c2ccccc2)cc1	> 659 µM	> 659 µM	> 659 µM	> 659 µM	> 659 µM	> 659 µM	> 659 µM	> 659 µM	> 659 µM	–	–	–	–	–	–	–	–	–
CCOC(=O)c1nn(-c2ccc(Cl)cc2)c(-c2ccccc2)c1CNC(C)(C)C	> 608 µM	> 608 µM	–	> 608 µM	> 608 µM	336 µM	> 608 µM	> 608 µM	> 608 µM	64.5 µM	–	–	–	–	–	–	–	–
CC(C)(C)NCc1c(C(=O)O)nn(-c2ccccc2)c1-c1ccc(Br)cc1	366 µM	126 µM	> 585 µM	> 585 µM	293 µM	> 585 µM	> 585 µM	> 585 µM	> 585 µM	–	–	–	–	–	–	–	–	–
COc1ccc(-c2c(CNC(C)(C)C)c(C(=O)O)nn2-c2ccc(Cl)cc2)cc1	121 µM	498 µM	> 605 µM	121 µM	220 µM	> 605 µM	> 605 µM	> 605 µM	> 605 µM	–	–	–	–	–	–	–	–	–
CCOC(=O)c1nn(-c2ccccc2)c(-c2ccc([N+](=O)[O-])cc2)c1CNC(C)(C)C	103 µM	–	–	–	206 µM	–	–	429 µM	–	12 µM	220 µM	8.78 µM	71.3 µM	> 592 µM	200 µM	–	–	–
CC(C)(C)NCc1c(C(=O)O)nn(-c2ccc(Cl)cc2)c1-c1ccc(F)cc1	28.7 µM	> 623 µM	> 623 µM	116 µM	270 µM	> 623 µM	> 623 µM	> 623 µM	204 µM	–	–	–	–	–	–	–	–	–
CC(C)(C)NCc1c(C(=O)O)nn(-c2ccccc2)c1-c1ccc(F)cc1	> 681 µM	> 681 µM	> 681 µM	–	> 681 µM	> 681 µM	> 681 µM	> 681 µM	> 681 µM	–	–	–	–	–	–	–	–	–
CC(C)(C)NCc1c(C(=O)O)nn(-c2ccccc2)c1-c1ccccc1	> 716 µM	> 716 µM	> 716 µM	> 716 µM	> 716 µM	> 716 µM	> 716 µM	> 716 µM	> 716 µM	–	–	–	–	–	–	–	–	–
CC(C)(C)NCc1c(C(=O)O)nn(-c2ccccc2)c1-c1ccc([N+](=O)[O-])cc1	> 634 µM	> 634 µM	> 634 µM	> 634 µM	> 634 µM	> 634 µM	> 634 µM	> 634 µM	> 634 µM	–	–	–	–	–	–	–	–	–
CCOC(=O)c1nn(-c2ccc(Cl)cc2)c(-c2ccc(Br)cc2)c1CNC(C)(C)C	> 511 µM	> 511 µM	> 511 µM	> 511 µM	> 511 µM	> 511 µM	> 511 µM	> 511 µM	> 511 µM	–	–	–	–	–	–	–	–	–
CC(C)(C)NCc1c(C(=O)O)nn(-c2ccc(Cl)cc2)c1-c1ccc(Cl)cc1	87.5 µM	518 µM	290 µM	84.9 µM	246 µM	> 599 µM	> 599 µM	> 599 µM	> 599 µM	–	–	–	–	–	–	–	–	–
CC(C)(C)NCc1c(C(=O)O)nn(-c2ccc(Cl)cc2)c1-c1ccc(Br)cc1	> 542 µM	> 542 µM	297 µM	513 µM	221 µM	> 542 µM	> 542 µM	> 542 µM	542 µM	–	–	–	–	–	–	–	–	–
CCOC(=O)c1nn(-c2ccccc2)c(-c2ccc(C)cc2)c1CNC(C)(C)C	–	–	–	–	–	–	–	–	–	> 585 µM	> 585 µM	> 585 µM	> 585 µM	> 585 µM	> 585 µM	> 585 µM	> 585 µM	> 585 µM
